The results in this text go back to patent publication US12509439B2, “Anti-malarial agents” (UNIVERSITY OF KENTUCKY RESEARCH FOUNDATION, priority 2020, dated 2025).

Each structure is given as a SMILES string.

Series [1] is described as follows: Microsomal intrinsic clearance, rat liver microsomes. Format: in vitro ADME. The conditions noted are these: rat liver microsomes (pooled), pH 7.4, 45 min, NADPH. Here is the method: (§1) The compounds of the invention (1 μM) were incubated in suspension with human (rat or mouse) liver microsomes pooled from multiple donors (>10) and samples taken at 5 time points over the course of a 45 min experiment and analysed by LC MS/MS. Microsomes (final protein concentration 0.5 mg/mL), 0.1 M phosphate buffer pH 7.4 and test compound (final substrate concentration 1 μM; final DMSO concentration 0.25%) were pre-incubated at 37° C. prior to the addition of NADPH (final concentration 1 mM) to initiate the reaction. A minus cofactor control incubation was included for each compound tested where 0.1 M phosphate buffer pH 7.4 is added instead of NADPH (minus NADPH). All incubations were performed in duplicate for each test compound and the results averaged. Each compound is incubated for 0, 5, 15, 30 and 45 min. The control (minus NADPH) was incubated for 45 min only. The reactions were stopped by transferring incubate into acetonitrile at the appropriate time points, in a 1:3 ratio.
(§2) The termination plates were centrifuged at 3,000 rpm for 20 min at 4° C. to precipitate the protein. Following protein precipitation, the sample supernatants were combined in cassettes of up to 4 compounds, internal standard added and samples analysed by LC-MS/MS. From a plot of ln peak area ratio (compound peak area/internal standard peak area) against time, the gradient of the line is determined. Subsequently, half-life (t½) and intrinsic clearance (CLint) are calculated using the equations below: Elimination rate constant (k)=(−gradient) Half-life (t1/2)(min)=0.693/k Intrinsic clearance (i.e. CLint)(μL/min/mg protein)=V×0.693/t1/2 where V=Incubation volume (μL)/Microsomal protein (mg)
(§3) Verapamil and dextromethorphan were included in the assay as controls and if the values for these compounds were not within the specified limits the results were rejected and the experiment repeated.
For orientation: Liver microsomes are a subcellular fraction often used to study metabolism.

Series [2] deals with Plasmodium falciparum (3D7). As to the kind of experiment: In-vitro potency against P. falciparum (3D7 strain), SYBR Green growth inhibition. Format: cell-based. The conditions noted are these: P. falciparum 3D7, asexual intraerythrocytic stage, SYBR Green fluorescence. Here is the method: Cultures of the widely-used malaria reference strain of chloroquine-sensitive Plasmodium falciparum (3D7) were maintained in a 1.25% suspension of human red blood cells cultured in RPMI 1640 medium (pH 7.3) supplemented with 0.5% Albumax II (Gibco Life Technologies, San Diego, CA), 12 mM sodium bicarbonate, 0.2 mM hypoxanthine, and 20 mg/L gentamicin at 37° C., in an atmosphere of 1% O2, 3% CO2 with a balance of nitrogen (Human malaria parasites in continuous culture. Trager W et al., 1976, Science, 193: 673-675). Growth inhibition was quantified using a fluorescence assay utilising the binding of SYBR Green (Novel, rapid, and inexpensive cell-based quantification of antimalarial drug efficacy. Bennett T. N. et al., 2004, Antimicrob. Agents Chemother., 48: 1807-1810) to double stranded DNA, which emits a fluorescent signal at 528 nm after excitation at 485 nm. Mefloquine was used as a drug control to monitor the quality of the assay (Z′=0.6 to 0.8, where Z′ is a measure of the discrimination between the positive and negative controls on a screen plate). Hits were confirmed by full-potency curves with dose-response curves determined from a minimum of 3 independent experiments. Compound bioactivity was expressed as EC50, the effective concentration of compound causing 50% parasite death. All data were processed using IDBS ActivityBase. Raw data was converted into percent inhibition through linear regression by setting the high inhibition control as 100% and the no inhibition control as 0%. Quality control criteria for passing plates were as follows: z′>0.5, S:B>3, % CV(no inhibition control)<15. The formula used to calculate z′ is
Curve fitting was carried out using the following 4 parametric equation:
where A=% inhibition at bottom, B=% inhibition at top, C=EC50, D=slope, x=inhibitor concentration and y=% inhibition. If curve definition was poor, B was fixed to 100.

A short description of series [3]: Microsomal intrinsic clearance, human liver microsomes. In kind it is in vitro ADME. The conditions noted are these: human liver microsomes (pooled), pH 7.4, 45 min, NADPH. Here is the method:
as §1, §2, §3

Series [4] can be described thus: PK parameters in rat (IV and PO). In kind it is in vivo. The conditions noted are these: for PK parameters (rat): F: 1 mg/kg IV and 3 mg/kg PO; for clearance / half-life: Sprague Dawley, plasma, IV arm, 1 mg/kg; for clearance: read-out: PK parameters (rat): Cl; for half-life: read-out: PK parameters (rat): t1/2. Here is the method: Swiss Albino male mice or Sprague Dawley rats (TCGLS, India) were kept under a 12/12 h light/dark cycle, 22±2° C. temp, 50±20% RH with free access to food and water ad libitum. Mice were selected randomly/based on body weight/age and fasted for 4 h before dosing and until 2 h after dosing. Three mice were used per route of administration. For IV determination (1 mg/kg, dose volume 5 ml/kg) the dose was administered by injection into the lateral tail vein (rats are anaesthetized using 3% v/v isoflurane: oxygen mixture). For PO determination (3 mg/kg, dose volume 10 ml/kg) the dose was administered by oral gavage in conscious animals.
(§4) Blood samples were taken (mice 50 μL, rat 100 μL) at regular timepoints from the saphenous vein (conscious restrained animals) and collected into heparinized capillary tubes and transferred into 0.5 mL microcentrifuge tubes. Samples were processed by centrifugation at 1640 g for 10 min at +4° C. within 30 min of collection and stored at −20° C. until bioanalysis. All samples were mixed with ice-cold acetonitrile containing an internal standard, centrifuged at 4000 rpm for 15 min at 15° C. Supernatant was then half diluted in water and analysed by LCMS/MS analysis to determine analyte peak area/IS peak area (the ratio). Concentration (plasma) of the compounds of the invention was determined by reference to a calibration curve. Pharmacokinetic parameters (Cmax, Tmax, AUC, t1/2, CL, Vd, BA) were calculated using WinNonLin, using non-compartmental analysis (Phoenix, Version 6.3). The pharmacokinetic parameters for compounds shown in Table 2 support that compounds of the invention have pharmacokinetic properties associated with treatment of malaria via the oral route and that compounds have substantially longer half-lives than the reference compound.

Series [5] in a line: PK parameters in mouse (IV and PO). In kind it is in vivo. The conditions noted are these: for PK parameters (mouse): F: 10 mg/kg IV and 10 mg/kg PO; for clearance / half-life: male, Swiss Albino, plasma, IV arm, 10 mg/kg; for clearance: read-out: PK parameters (mouse): Cl; for half-life: read-out: PK parameters (mouse): t1/2. Here is the method: Swiss Albino male mice or Sprague Dawley rats (TCGLS, India) were kept under a 12/12 h light/dark cycle, 22±2° C. temp, 50±20% RH with free access to food and water ad libitum. Mice were selected randomly/based on body weight/age and fasted for 4 h before dosing and until 2 h after dosing. Three mice were used per route of administration. […]
as §4

The nature of series [6]: Microsomal intrinsic clearance, mouse liver microsomes. The conditions noted are these: mouse liver microsomes (pooled), pH 7.4, 45 min, NADPH. Format: in vitro ADME. Here is the method: as §1, §2, §3

In general, microsomal CLint refers to a measure of how fast metabolising enzymes remove a compound, apart from limits set by blood flow. Higher therefore signals rapid turnover. As a reminder, the EC50 is the concentration giving half of the maximal effect. A higher EC50 goes with a need for much substance. Take `N#Cc1cc(NC(=O)[C@H]2c3ccccc3C(=O)N(CC(F)(F)F)[C@@H]2c2ccc(OC3CC3)nc2)ccc1F` (single isomer, unassigned) [(1a)]: the microsomal CLint at 1 μM in series [1] was under 10 µL/min/mg. This molecule also registered an EC50 in series [2] of 19 nM. Besides, the microsomal CLint at 1 μM in series [3] is under 3 µL/min/mg. For the same molecule, in series [4], the “PK parameters (rat): F” value is on record as “F = 107%”, the clearance amounted to 1 mL/min/kg and the half-life is 26 h. Further, in series [5], the “PK parameters (mouse): F” value is listed as “F = 79%”, the clearance was determined as 2.17 mL/min/kg and the half-life amounted to 17 h. The microsomal CLint at 1 μM in series [6] is under 10 µL/min/mg.

For `N#Cc1cc(NC(=O)[C@H]2c3ccccc3C(=O)N(CC(F)(F)F)[C@@H]2c2cnc(C(F)(F)F)nc2)ccc1F` [(9a), (3S,4S)—N-(3-cyano-4-fluorophenyl)-1-oxo-2-(2,2,2-trifluoroethyl)-3-(2-(trifluoromethyl)pyrimidin-5-yl)-1,2,3,4-tetrahydroisoquinoline-4-carboxamide], the microsomal CLint at 1 μM is under 10 µL/min/mg in series [1], under 3 µL/min/mg in series [3] and 10.1 µL/min/mg in series [6]. The molecule also had an EC50 in series [2] of 103 nM. The “PK parameters (rat): F” value in series [4] was “F = 65%”. The clearance in series [4] turned out to be 1.33 mL/min/kg; in series [5], 3.17 mL/min/kg. In addition, the half-life is 22 h in series [4] and 14 h in series [5]. The “PK parameters (mouse): F” value in series [5] is “F = 92%”.

With `N#Cc1cc(NC(=O)[C@H]2c3ccccc3C(=O)N(CC(F)(F)F)[C@@H]2c2cccnc2)ccc1F` [(+) SJ-733, 4-Isoquinolinecarboxamide, N-(3-cyano-4-fluorophenyl)-1,2,3,4-tetrahydro-1-oxo-3-(3-pyridinyl)-2-(2,2,2-trifluoroethyl)-, (3S,4S)-, reference compound], the microsomal CLint at 1 μM in series [1] was under 6 µL/min/mg. In series [2], this molecule showed an EC50 of 145 nM. Besides, in series [3], the microsomal CLint at 1 μM amounted to 140 µL/min/mg. Moreover, in series [4], the “PK parameters (rat): F” value was “F = 75%”, the clearance came out at 13.3 mL/min/kg and the half-life was 7.7 h. In series [5], the “PK parameters (mouse): F” value is listed as “F = 66%”, the clearance turned out to be 70 mL/min/kg and the half-life was 1.1 h. This molecule also displayed a microsomal CLint at 1 μM in series [6] of 37 µL/min/mg.
